# Data reported in patent US7994209B2, “3-phenoxymethylpyrrolidine compounds” (Theravance, Inc., priority 2009, dated 2011).
# How the values were obtained:
# [1] = target: T1, hNET (Homo sapiens, UniProt P23975); assay: hNET membrane radioligand binding assay (3H-nisoxetine), Assay 1
# [2] = target: T2, hSERT (Homo sapiens, UniProt P31645); assay: hSERT neurotransmitter uptake assay (3H-5-HT), Assay 2; type: cell-based; parameters: expressed in transfected cells; host or cells: HEK-293; conditions: serotonin reuptake inhibition, 3H-5-HT uptake, HEK-293 hSERT cells (values without asterisk); read-out: SERT pIC50 (converted)
# T2 sequence (P31645 whole entry): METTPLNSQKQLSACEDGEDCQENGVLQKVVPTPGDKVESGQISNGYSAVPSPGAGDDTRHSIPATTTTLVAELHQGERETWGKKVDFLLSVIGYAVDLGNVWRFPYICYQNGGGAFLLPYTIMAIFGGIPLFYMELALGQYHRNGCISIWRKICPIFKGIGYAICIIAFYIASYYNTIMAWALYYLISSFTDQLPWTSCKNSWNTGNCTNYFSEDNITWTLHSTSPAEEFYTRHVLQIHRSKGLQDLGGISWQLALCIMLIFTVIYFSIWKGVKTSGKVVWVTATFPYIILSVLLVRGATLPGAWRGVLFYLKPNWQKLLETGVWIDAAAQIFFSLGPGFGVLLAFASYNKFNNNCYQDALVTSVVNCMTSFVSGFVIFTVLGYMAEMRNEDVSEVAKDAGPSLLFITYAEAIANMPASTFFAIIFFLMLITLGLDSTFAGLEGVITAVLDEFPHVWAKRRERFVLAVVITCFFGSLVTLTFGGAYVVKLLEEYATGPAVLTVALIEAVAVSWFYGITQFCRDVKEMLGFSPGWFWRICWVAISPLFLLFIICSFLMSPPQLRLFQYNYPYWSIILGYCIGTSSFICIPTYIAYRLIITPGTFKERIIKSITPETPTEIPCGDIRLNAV
# Procedure: (§1) Cells were harvested by centrifugation at 1100 rpm for 5 minutes, washed once by resuspension in PBS, then centrifuged. The supernatant was discarded and the cell pellet resuspended, by gentle trituration, in room temperature Krebs-Ringer bicarbonate buffer containing HEPES (10 mM), CaCl2 (2.2 mM), ascorbic acid (200 μM) and pargyline (200 μM), pH 7.4.
# (§2) Test compounds were incubated for 30 minutes at 37° C. with the respective cells, prior to addition of radiolabeled neurotransmitter, ^3H-5-HT (20 nM final concentration), ^3H-NE (50 nM final concentration) or ^3H-DA (100 nM final concentration).
# [3] = target: T2, hSERT; assay: hSERT membrane radioligand binding assay (3H-citalopram), Assay 1; conditions: SERT pKi, hSERT HEK-293 membranes, 1.0 nM 3H-citalopram; values given as lower bounds
# [4] = target: T1, hNET; assay: hNET neurotransmitter uptake assay (3H-NE), Assay 2; type: cell-based; parameters: expressed in transfected cells; host or cells: HEK-293; conditions: norepinephrine reuptake inhibition, 3H-NE uptake, HEK-293 hNET cells (values without asterisk); read-out: NET pIC50 (converted)
# Procedure: as §1, §2
# T1 sequence (P23975 whole entry): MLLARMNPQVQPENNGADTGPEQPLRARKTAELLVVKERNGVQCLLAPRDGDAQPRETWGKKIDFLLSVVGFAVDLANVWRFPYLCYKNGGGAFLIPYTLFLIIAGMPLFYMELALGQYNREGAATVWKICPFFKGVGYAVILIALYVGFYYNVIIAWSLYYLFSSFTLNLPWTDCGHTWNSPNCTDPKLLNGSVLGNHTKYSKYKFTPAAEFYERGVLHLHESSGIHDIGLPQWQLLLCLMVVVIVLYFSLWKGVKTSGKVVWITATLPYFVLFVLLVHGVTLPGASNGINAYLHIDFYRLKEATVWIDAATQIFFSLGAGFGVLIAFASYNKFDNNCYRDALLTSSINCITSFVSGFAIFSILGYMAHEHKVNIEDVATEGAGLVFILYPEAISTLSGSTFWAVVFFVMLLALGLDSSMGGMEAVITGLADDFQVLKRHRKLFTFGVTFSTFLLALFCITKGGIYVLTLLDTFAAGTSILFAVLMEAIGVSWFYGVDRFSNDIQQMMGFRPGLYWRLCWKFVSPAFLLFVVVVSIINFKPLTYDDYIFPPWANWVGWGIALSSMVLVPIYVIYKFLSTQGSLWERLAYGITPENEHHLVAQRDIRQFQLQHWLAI
Structure (SMILES),Ki [1] [nM],IC50 [2] [nM],Ki [3] [nM],IC50 [4] [nM]
"CC[C@H](Oc1ccc(Cl)cc1C(F)(F)F)[C@H]1CCNC1 [Example 2-75, (S)-3-[(S)-1-(4-Chloro-2-trifluoromethylphenoxy)propyl]pyrrolidine]",≤ 10,≤ 100,≤ 10,≤ 10
"CCC[C@H](Oc1cccc(Cl)c1Cl)[C@H]1CCNC1 [Example 3, (S)-3-[(S)-1-(2,3-Dichlorophenoxy)butyl]pyrrolidine]",≤ 10,≤ 10,≤ 10,≤ 10
"CCC[C@H](Oc1ccc(Cl)cc1)[C@H]1CCNC1 [Example 4-1, (S)-3-[(S)-1-(4-Chlorophenoxy)butyl]pyrrolidine]",≤ 10,≤ 10,≤ 10,≤ 10
"CCC[C@@H](Oc1ccc(Cl)cc1)[C@H]1CCNC1 [Example 4-2, (S)-3-[(R)-1-(4-Chlorophenoxy)butyl]pyrrolidine]",≤ 10,≤ 10,≤ 10,≤ 100
"CCC[C@H](Oc1ccc(F)cc1)[C@H]1CCNC1 [Example 4-5, (S)-3-[(S)-1-(4-Fluorophenoxy)butyl]pyrrolidine]",≤ 10,≤ 100,≤ 10,≤ 10
"CCC[C@H](Oc1cc(Cl)cc(Cl)c1)[C@H]1CCNC1 [Example 4-6, (S)-3-[(S)-1-(3,5-Dichlorophenoxy)butyl]pyrrolidine]",≤ 10,≤ 10,≤ 10,≤ 10
"CCC[C@@H](Oc1cc(Cl)cc(Cl)c1)[C@H]1CCNC1 [Example 4-7, (S)-3-[(R)-1-(3,5-Dichlorophenoxy)butyl]pyrrolidine]",≤ 10,≤ 10,≤ 10,≤ 10
"CCC[C@H](Oc1ccc(Cl)c(Cl)c1)[C@H]1CCNC1 [Example 4-12, (S)-3-[(S)-1-(3,4-Dichlorophenoxy)butyl]pyrrolidine]",≤ 10,≤ 10,≤ 10,≤ 10
"CCC[C@@H](Oc1ccc(Cl)c(Cl)c1)[C@H]1CCNC1 [Example 4-13, (S)-3-[(R)-1-(3,4-Dichlorophenoxy)butyl]pyrrolidine]",≤ 10,≤ 10,≤ 10,≤ 10
"CCC[C@H](Oc1ccc(Cl)c(F)c1)[C@H]1CCNC1 [Example 4-18, (S)-3-[(S)-1-(4-Chloro-3-fluorophenoxy)butyl]pyrrolidine]",≤ 10,≤ 10,≤ 10,≤ 10
"CCC[C@H](Oc1ccccc1Cl)[C@H]1CCNC1 [Example 4-19, (S)-3-[(S)-1-(2-Chlorophenoxy)butyl]pyrrolidine]",≤ 10,≤ 100,≤ 10,≤ 10
"CCC[C@@H](Oc1ccccc1Cl)[C@H]1CCNC1 [Example 4-20, (S)-3-[(R)-1-(2-Chlorophenoxy)butyl]pyrrolidine]",≤ 10,≤ 100,≤ 10,≤ 10
"CCC[C@@H](Oc1cccc(Cl)c1Cl)[C@H]1CCNC1 [Example 4-23, (S)-3-[(R)-1-(2,3-Dichlorophenoxy)butyl]pyrrolidine]",≤ 10,≤ 10,≤ 10,≤ 10
"CCC[C@@H](Oc1cccc(Cl)c1Cl)[C@@H]1CCNC1 [Example 4-25, (R)-3-[(R)-1-(2,3-Dichlorophenoxy)butyl]pyrrolidine]",≤ 10,≤ 10,≤ 10,≤ 10
"CCC[C@H](Oc1c(Cl)ccc(Cl)c1Cl)[C@H]1CCNC1 [Example 4-27, (S)-3-[(S)-1-(2,3,6-Trichlorophenoxy)butyl]pyrrolidine]",≤ 10,≤ 10,≤ 10,≤ 10
"CCC[C@H](Oc1ccc(Cl)cc1Cl)[C@H]1CCNC1 [Example 4-28, (S)-3-[(S)-1-(2,4-Dichlorophenoxy)butyl]pyrrolidine]",≤ 10,≤ 10,≤ 10,≤ 10
"CCC[C@H](Oc1ccc(F)cc1Cl)[C@H]1CCNC1 [Example 4-32, (S)-3-[(S)-1-(2-Chloro-4-fluorophenoxy)butyl]pyrrolidine]",≤ 10,≤ 10,≤ 10,≤ 10
"CCC[C@H](Oc1c(Cl)cccc1Cl)[C@H]1CCNC1 [Example 4-33, (S)-3-[(S)-1-(2,6-Dichlorophenoxy)butyl]pyrrolidine]",≤ 10,≤ 100,≤ 10,≤ 10
"CCC[C@H](Oc1ccc(C)cc1Cl)[C@H]1CCNC1 [Example 4-37, (S)-3-[(S)-1-(2-Chloro-4-methylphenoxy)butyl]pyrrolidine]",≤ 10,≤ 10,≤ 10,≤ 10
"CCC[C@H](Oc1c(F)ccc(OC)c1Cl)[C@H]1CCNC1 [Example 4-43, (S)-3-[(S)-1-(2-Chloro-6-fluoro-3-methoxyphenoxy)butyl]pyrrolidine]",≤ 10,≤ 10,≤ 10,≤ 10
"CCC[C@H](Oc1ccc(F)c(F)c1F)[C@H]1CCNC1 [Example 4-50, (S)-3-[(S)-1-(2,3,4-Trifluorophenoxy)butyl]pyrrolidine]",≤ 10,≤ 100,≤ 10,≤ 10
"CCC[C@H](Oc1cccc(Cl)c1C)[C@H]1CCNC1 [Example 4-54, (S)-3-[(S)-1-(3-Chloro-2-methylphenoxy)butyl]pyrrolidine]",≤ 10,≤ 10,≤ 10,≤ 10
"CCC[C@@H](Oc1cccc(Cl)c1C)[C@H]1CCNC1 [Example 4-55, (S)-3-[(R)-1-(3-Chloro-2-methylphenoxy)butyl]pyrrolidine]",≤ 10,≤ 100,≤ 10,≤ 10
"CCC[C@@H](Oc1cccc(Cl)c1C)[C@@H]1CCNC1 [Example 4-57, (R)-3-[(R)-1-(3-Chloro-2-methylphenoxy)butyl]pyrrolidine]",≤ 10,≤ 10,≤ 10,≤ 10
"CCC[C@H](Oc1ccc(Cl)cc1C)[C@H]1CCNC1 [Example 4-58, (S)-3-[(S)-1-(4-Chloro-2-methylphenoxy)butyl]pyrrolidine]",≤ 10,≤ 10,≤ 10,≤ 10
"CCC[C@@H](Oc1cccc(C)c1C)[C@@H]1CCNC1 [Example 4-63, (R)-3-[(R)-1-(2,3-Dimethylphenoxy)butyl]pyrrolidine]",≤ 10,≤ 10,≤ 10,≤ 10
"CC(C)[C@H](Oc1ccc(Cl)cc1)[C@H]1CCNC1 [Example 5, (S)-3-[(S)-1-(4-Chlorophenoxy)-2-methylpropyl]pyrrolidine]",≤ 10,≤ 10,≤ 10,≤ 10
"CC(C)[C@H](Oc1ccc(Cl)c(Cl)c1F)[C@H]1CCNC1 [Example 6-7, (S)-3-[(S)-1-(3,4-Dichloro-2-fluorophenoxy)-2-methylpropyl]pyrrolidine]",≤ 10,≤ 10,≤ 10,≤ 10
